In patent US20140371069A1, “Short-Chain Alkyl Sulfonates in Pesticide Formulations and Applications” (priority 2011, published 2014):
Where two headings read alike, the source gives them in different places.

Experiments:
[1] = Stability of pesticide formulation containing glufosinate-ammonium and C8 ether sulfate at 1:1 weight ratio with test hydrotrope
Excerpt: Specifically, the pesticide active in the pesticide formulation is glufosinate-ammonium and the adjuvant is C8 ether sulfate.

[2] = Separation of the formulations after one freeze/thaw cycle (ternary diagram); assay type: physicochemical; settings: FIG. 2 versus FIG. 4
Experimental: The formulations listed in Example 1 were subjected to a freeze/thaw cycle in which the formulations were frozen and thawed to room temperature. The stability of the formulations was then assessed. FIG. 2 illustrates the results of the assessment. FIG. 2 is a ternary diagram showing regions of varying percentages of separation after one freeze/thaw cycle of the formulations.
A freeze/thaw cycle changes the solubility of some of the components, therefore, by subjecting the formulations to a freeze/thaw cycle, the effect of the solubility change on the stability of the formulations can be assessed.
The formulations listed in Comparative Example 1 were subjected to a freeze/thaw cycle and the stability of the formulations was subsequently assessed. FIG. 4 illustrates the results of the assessment. FIG. 4 is a ternary diagram showing regions of varying percentages of separation after one freeze/thaw cycle of the formulations.

[3] = Separation of the formulations on standing at room temperature (ternary diagram); assay type: physicochemical; settings: for region of stability (blue region) in ternary diagram of percentage of separation: glufosinate ammonium 25.8%, C8 ether sulfate 30.6%, hydrotrope 0-10%, propylene glycol 0-15% w/w
Experimental: A design experiment was performed in which pesticide formulations containing the following were prepared: [table] The formulations were allowed to sit for 24 hours at room temperature and the stability of the formulations was assessed. FIG. 1 illustrates the results of the experiment. FIG. 1 is a ternary diagram showing regions of varying percentages of separation after 24 hours at room temperature of the formulations containing the above-listed components. The numbers associated with the small colored bar in the upper left hand corner of the figure indicate the percentage of separation in the samples. The colors in the bar correspond to the colored regions in the ternary diagram. […] An experiment was performed in which pesticide formulations containing the following were prepared: [table] The formulations were allowed to sit for two hours at room temperature and the stability of the formulations was assessed. FIG. 3 illustrates the results of the experiment. FIG. 3 is a ternary diagram showing regions of varying percentages of separation after two hours at room temperature of the formulations containing the above-listed components.

[4] = glufosinate-ammonium and C8 ether sulfate at 1:1 weight ratio
[5] = after 24 hours at room temperature, FIG. 1

Compound | stability of the pesticide formulation containing the material as hydrotrope [1] | stability of the pesticide formulation containing the material as hydrotrope [1, 4] | also measured
COC(C)COC(C)CO (stereo not drawn) [dipropylene glycol monomethyl ether] | developed two phases that separated very quickly | – | –
CC(O)CO (stereo not drawn) [propylene glycol] | – | developed two phases that separated very quickly | –
CC(C)c1ccc(S(=O)(=O)[O-])cc1.[Na+] [sodium cumene sulfonate] | – | developed two phases that separated very quickly | –
CCCCCCCCS(=O)(=O)[O-].[Na+] [sodium octane sulfonate] | – | – | effectiveness as a hydrotrope compared with sodium xylene sulfonate [2]: more effective as a hydrotrope than sodium xylene sulfonate; effectiveness as a hydrotrope in the formulations [3, 5]: effective as a hydrotrope; region of stability (blue region) in ternary diagram of percentage of separation [3, 5]: large; effectiveness as a hydrotrope compared with sodium xylene sulfonate ([3]; room temperature, FIG. 1 (24 hours) versus FIG. 3 (two hours)): significantly more effective as a hydrotrope than sodium xylene sulfonate
C4 alcohol+2EO sulfate ester sodium salt | developed two phases that separated very quickly | – | –
C4 alcohol+4EO sulfate esters sodium salt | developed two phases that separated very quickly | – | –
C6 alcohol+4EO sodium salt | developed two phases that separated very quickly | – | –
sodium xylene sulfonate | – | developed two phases that separated very quickly | region of stability (blue region) in ternary diagram of percentage of separation ([3]; after two hours at room temperature, FIG. 3): small
